Numbers after ± are expanded uncertainties.
What was measured:
[1] = 101.33 kPa, Liquid; for speed of sound: Pulse-echo method
[2] = xn = mol fraction of the nth substance listed; details: 101 kPa, Liquid

CNc1ccccc1 [N-methylaniline]
[1]
Details | mass density [kg/m3] | speed of sound [m/s]
293.15 K | 986.077 ± 0.93 | 1582.3 ± 2.1
298.15 K | 982.066 ± 0.93 | 1564.4 ± 2.1
303.15 K | 978.011 ± 0.93 | 1545.5 ± 2.1

CNc1ccccc1 [N-methylaniline] + CC(C)=O
[2]
Details | mass density [kg/m3]
293.15 K, x2 = 0.0565 | 979.562 ± 0.86
293.15 K, x2 = 0.1032 | 973.934 ± 0.81
293.15 K, x2 = 0.1494 | 968.145 ± 0.77
293.15 K, x2 = 0.1916 | 962.605 ± 0.73
293.15 K, x2 = 0.251 | 954.413 ± 0.68
293.15 K, x2 = 0.2952 | 948.053 ± 0.64
293.15 K, x2 = 0.3555 | 938.912 ± 0.6
293.15 K, x2 = 0.4039 | 931.04 ± 0.57
293.15 K, x2 = 0.4478 | 923.576 ± 0.54
293.15 K, x2 = 0.4981 | 914.659 ± 0.52
293.15 K, x2 = 0.5489 | 905.091 ± 0.5
293.15 K, x2 = 0.5965 | 895.722 ± 0.48
293.15 K, x2 = 0.6485 | 884.852 ± 0.47
293.15 K, x2 = 0.7018 | 873.046 ± 0.46
293.15 K, x2 = 0.7472 | 862.27 ± 0.46
293.15 K, x2 = 0.802 | 848.69 ± 0.45
293.15 K, x2 = 0.8563 | 834.277 ± 0.46
293.15 K, x2 = 0.9053 | 820.343 ± 0.46
293.15 K, x2 = 0.9548 | 805.391 ± 0.47
298.15 K, x2 = 0.044 | 977.005 ± 0.88
298.15 K, x2 = 0.0984 | 970.455 ± 0.82
298.15 K, x2 = 0.1447 | 964.607 ± 0.77
298.15 K, x2 = 0.1996 | 957.353 ± 0.72
298.15 K, x2 = 0.2503 | 950.29 ± 0.68
298.15 K, x2 = 0.2919 | 944.327 ± 0.65
298.15 K, x2 = 0.3511 | 935.283 ± 0.6
298.15 K, x2 = 0.3924 | 928.532 ± 0.58
298.15 K, x2 = 0.452 | 918.415 ± 0.55
298.15 K, x2 = 0.4948 | 910.794 ± 0.53
298.15 K, x2 = 0.5563 | 899.086 ± 0.5
298.15 K, x2 = 0.6004 | 890.231 ± 0.49
298.15 K, x2 = 0.6473 | 880.387 ± 0.48
298.15 K, x2 = 0.6962 | 869.434 ± 0.47
298.15 K, x2 = 0.7506 | 856.501 ± 0.46
298.15 K, x2 = 0.8009 | 843.758 ± 0.46
298.15 K, x2 = 0.8518 | 830.205 ± 0.46
298.15 K, x2 = 0.8986 | 816.915 ± 0.47
298.15 K, x2 = 0.9488 | 801.799 ± 0.48
303.15 K, x2 = 0.0461 | 972.638 ± 0.88
303.15 K, x2 = 0.0934 | 966.889 ± 0.83
303.15 K, x2 = 0.1524 | 959.343 ± 0.77
303.15 K, x2 = 0.1937 | 953.815 ± 0.73
303.15 K, x2 = 0.2442 | 946.596 ± 0.69
303.15 K, x2 = 0.3357 | 933.026 ± 0.62
303.15 K, x2 = 0.3991 | 922.737 ± 0.58
303.15 K, x2 = 0.4904 | 906.677 ± 0.53
303.15 K, x2 = 0.5507 | 895.228 ± 0.51
303.15 K, x2 = 0.5949 | 886.274 ± 0.49
303.15 K, x2 = 0.6467 | 875.21 ± 0.48
303.15 K, x2 = 0.6928 | 864.807 ± 0.47
303.15 K, x2 = 0.7424 | 852.961 ± 0.47
303.15 K, x2 = 0.7993 | 838.524 ± 0.47
303.15 K, x2 = 0.8469 | 825.646 ± 0.47
303.15 K, x2 = 0.8977 | 811.117 ± 0.48
303.15 K, x2 = 0.9484 | 795.598 ± 0.49

CC(C)=O [acetone]
[1]
Details | mass density [kg/m3] | speed of sound [m/s]
293.15 K | 790.694 ± 0.49 | 1182.8 ± 0.8
298.15 K | 785.32 ± 0.5 | 1160.7 ± 0.8
303.15 K | 778.812 ± 0.51 | 1138.7 ± 0.8

Nc1ccccc1 [aniline]
[1]
Details | mass density [kg/m3] | speed of sound [m/s]
293.15 K | 1021.7 ± 0.21 | 1657 ± 0.9
298.15 K | 1017.41 ± 0.2 | 1638.6 ± 0.9
303.15 K | 1013.04 ± 0.2 | 1619.2 ± 0.9

Reference: the NIST ThermoML archive (doi:10.1021/je900874z)
